Patent US5646308A, “Benzopyran derivatives” (Chugai Seiyaku Kabushiki Kaisha, priority 1992, dated 1997)

Assays:
[1] = system: Rat Aorta; test: Test with Excised Aorta of Rat: relaxation of lasting KCl-induced contraction; parameters: species or system male Sprague Dawley rat; conditions: rat thoracic aorta rings, 30 mM KCl contraction, Krebs-Henseleit, 37° C., tension 2 g; read-out: IC50 (50% inhibitory concentration, relaxation of lasting contraction following KCl addition), Rat Aorta
Protocol: Test with Excised Aorta of Rat
The thoracic aorta was excised from a male Sprague Dawley rat (450 to 600 g) and cut into 2 mm wide ring preparations. Each preparation was suspended in 10 ml of an organ bath containing a Krebs-Henseleit solution (NaCl: 119; KCl: 4.8; CaCl2 ·2H2 O: 2.53; KH2 PO4 : 1.2; MgSO4 ·7H2 O: 1.2; NaHCO3 : 24.8; glucose: 10 (mM); 37° C.) under a tension of 2 g, and a mixed gas of 95% O2 and 5% CO2 was bubbled therethrough. Isometric contractions of the preparation were recorded by means of an FD pick-up. […] The activity of a test compound to relax a lasting contraction following the KCl addition was evaluated by obtaining a 50% inhibitory concentration (IC50).
The compounds of the present invention obtained in the foregoing Examples and, for comparison, Cromakalim were used as test compounds.

[2] = system: Guinea Pig Tracheal Muscle; test: Test with Guinea Pig Tracheal Muscle: relaxing activity on spontaneous tension; parameters: species or system male Hartley guinea pig; conditions: Cavia porcellus, relaxation by 1 mM aminophylline = 100%, 37° C., tension 1 g, read-out: IC50 (concentration exhibiting 50% relaxing activity), Guinea Pig Tracheal Muscle
Protocol: Test with Guinea Pig Tracheal Muscle
The trachea was excised from a male Hartley guinea pig (450 to 550 g) to make chain preparations. The preparation was suspended In a bath containing the same Krebs-henseleit solution as used in Test Example 1 (37° C.) through which a mixed gas of 95% O2 and 5% CO2 was bubbled. Isometric contractions of the preparation were recorded under a tension of 1 g.
The same test compounds as used in Test Example 1 were used.

[3] = system: histamine-induced increase in respiratory tract inner pressure; test: Study on Antiasthmatic Activity: inhibition of histamine-induced increase in respiratory tract inner pressure; format: in vivo, male hartley guinea pig; conditions: Cavia porcellus, 10 min; anesthetized guinea pig, intraduodenal, 0.3% CMC suspension; histamine 5 to 10 μg/kg i.v. every 10 minutes; read-out: ED50 (dose for 50% inhibition of the histamine-induced increase in respiratory tract inner pressure)
Protocol: Study on Antiasthmatic Activity
A mid-line incision was made in the neck of a male hartley guinea pig (600 to 800 g, CRJ) under anesthesia with […] (40 mg/kg, i.p.). The trachea, the […], and the left carotid artery were exposed, and a cannula was inserted into each of them. The inner pressure of the respiratory tract was measured while applying artificial respiration through the tracheal cannula. The blood pressure was measured through the arterial cannula, and the heart rate was determined from the pulse. Pentobarbital for anesthesia maintenance was continuously administered through the venous cannula. A mid-line incision was made on the abdomen to expose the duodenum, and a canuula for intraduodenal administration was inserted thereinto. After the postoperative convalescene of 30 to 60 minutes, histamine (5 to 10 μg/kg) was intravenously administered every 10 minutes. After it was confirmed that a respiratory tract inner pressure rise reaction was stably obtained, a test compound in the form of a 0.3% CMC suspension was intraduodenally administered. The histamine dose was so selected that the respiratory tract inner pressure might rise to 20 to 40 cmH2 O after every intravenous administration. After administration of the test compound, intrvenous administration of histamine at 10 minutes intervals was continued. The histamine-induced increase in respiratory tract inner pressure after the administration of the test compound was compared with that before the administration.

`CN=C(NC#N)C1=CC(CF)(CF)Oc2ccc([N+](=O)[O-])cc21` [Example 9, N-Cyano-2,2-bis(fluoromethyl)-N'-methyl-6-nitro-2H-1-benzopyran-4-amidine] was tested, and the IC50 [1] was 14 nM and the IC50 [2] was 41 nM.

In the case of `CC1(C)Oc2ccc(C#N)cc2[C@@H](N2CCCC2=O)[C@@H]1O` (relative stereo) [Cromakalim, reference compound], the IC50 [1] is reported as 180 nM, the ED50 [3] is reported as 1 to 3 mg/kg and the IC50 [2] is reported as 790 nM.

`CN=C(NC#N)C1=CC(C)(COC)Oc2ccc([N+](=O)[O-])cc21` (stereo not shown) [Example 3, N-Cyano-2-methoxymethyl-N',2-dimethyl-6-nitro-2H-1-benzopyran-4-amidine] showed an IC50 [1] of 97 nM and an IC50 [2] of 260 nM.

`CNC(=S)C1=CC(CF)(CF)Oc2ccc([N+](=O)[O-])cc21` [Example 8, 2,2-Bis(fluoromethyl)-N-methyl-6-nitro-2H-1-benzopyran-4-carbothioamide] gave an IC50 [1] of 0.28 nM and an IC50 [2] of 3 nM.

`N#CCCNC(=O)C1=CC(CF)(CF)Oc2ccc([N+](=O)[O-])cc21` [Example 10, N-(2-cyanoethyl)-2,2-bis(fluoromethyl)-6-nitro-2H-1-benzopyran-4-carboxamide] was tested, and the IC50 [1] was 2.1 nM and the IC50 [2] was 5 nM.

In the case of `CNC(=O)C1=CC(CF)(CF)Oc2ccc([N+](=O)[O-])cc21` [Example 7, 2,2-Bis(fluoromethyl)-N-methyl-6-nitro-2H-1-benzopyran-4-carboxamide], the IC50 [1] is reported as 6 nM, the ED50 [3] is reported as 0.01 mg/kg and the IC50 [2] is reported as 10 nM.

With `CNC(=S)C1=CC(C)(COC)Oc2ccc([N+](=O)[O-])cc21` (stereo not shown) [Example 2, 2-Methoxymethyl-N,2-dimethyl-6-nitro-2H-1-benzopyran-4-carbothioamide] the IC50 [1] was 17 nM and the IC50 [2] was 29 nM.

`CNC(=O)C1=CC(C)(COC)Oc2ccc([N+](=O)[O-])cc21` (stereo not shown) [1(2), 2-methoxymethyl-N,2-dimethyl-6-nitro-2H-1-benzopyran-4-carboxamide] was tested, and the IC50 [1] was 59 nM, the ED50 [3] was 0.1 mg/kg and the IC50 [2] was 86 nM.
